The subject of assay [1] is primary hippocampus neurons. Kind of assay: Cell viability analysis (MTT assay). In kind it is cell-based, mouse (C57BL/6J). To be noted: Mus musculus, Neuron; primary hippocampus neurons treated on day 9, viability after 48 hours; read-out: IC50 dose, cell viability. As to the method:
The method of culturing mouse primary hippocampus neurons follow from a modified method from the prior art (Seibenhener and Wooten, 2012), including: obtaining a 16-18 day old embryo from a C57BL/6J strain pregnant female mouse after euthanasia, obtaining hippocampus tissue of the embryo and digesting the tissue with 0.05% trypsin at 37° C. for 15 minutes, and seeding 3×10^4 cells per well in a 48-well plate coated with Poly-L-lysine (100 μg/mL); wherein the components of the medium includes: Neurobasal Medium® (Gibco™; ThermoFisher Scientific, USA) adding 2% of B-27® Additive (Gibco™; ThermoFisher), 0.5 mM of glutamine (Gibco™; ThermoFisher), 25 μM of glutamate (Sigma-Aldrich, USA), 20 unit/mL of penicillin/streptomycin solution (Gibco™; ThermoFisher Scientific, USA), 1 mM of 4-(2-hydroxyethyl)-1-piperazineethanesulfonic acid) (HEPES) (Sigma-Aldrich), and 1% of heat inactivated Donor Horse Serum (Gibco™; ThermoFisher). […]
(3-(4,5-Dimethylthiazol-2-yl)-2,5-diphenyltetrazolium bromide, MTT) (Sigma, USA) has an original color of yellow, which is able to carry out a reducing reaction by a succinate dehydrogenase of mitochondria within living cells that breaks the tetrazolium ring thereof so as to form formazan, which has a violet color. […] Finally, the cell viability may be analyzed by detecting the changes of violet color (O.D. 570) by a spectrophotometer. […]
For orientation: Formazan colour is commonly taken as a measure of viable cells.

The next assay has as its system pCDK. Description: Western blot, pCDK. In kind it is in vivo, mice (C57BL/6J). To be noted: hippocampus. How it is done: (§1) Further, in some embodiments of the present invention, C57BL/6J strain male mice (12 week old) are used as a subject in need. After mice are allowed to adapt to the environment for 6 days, mice are anesthetized with Avertin (0.4 g/kg; purchased from Sigma). The mice are fixed on a stereotactic apparatus for operation, followed by injecting oligomeric Aβ25-35 (10 nM, 3 μL) into bilateral hippocampal CA1 (AP: […] relative to the bregma; ML: ±[…] relative to the midline; DV: […] relative to the skull) on day 7. MGCD0103 and equal volume of vehicle (saline) are intraperitoneal (i.p.) injected once a day from day 8, the day after said operation, for 29 days. On day 24, the Open Field Test is performed; on day 26, the EPM is performed; on day 28, the Y-maze is performed; on days 30 to 36, MWM is performed; and on day 37, mice are euthanized for pathological analysis.

The subject of assay [2] is cholinergic neurons in medial septum/diagonal band (MS/DB). Kind of assay: Immunohistochemical staining, cholinergic neurons (ChAT). To be noted: saline-injected mice; Mean±SEM. In kind it is in vivo, mice (C57BL/6J). As to the method:
as §1
(§2) The inventor collects the brain tissue by perfusion followed by fixing and dehydrating, then, 30 μm frozen sections are obtained by a freezing microtome (CMS3050S, Leica). […] After that, avidin-biotin complex (ABC) is detected 1 hour after staining. […] After all sections have been stained, they are then fixed on a slide, dried, dehydrated, mounted, and photographed for quantity (performed by Image Pro Plus, Meida Cyberetics, USA). […]

The test system of assay [3] is serotonergic neurons in Raphe nucleus. Description: Immunohistochemical staining, serotonergic neurons (5HT). The class given is in vivo, mice (C57BL/6J). To be noted: saline-injected mice; Mean±SEM. How it is done: as §1, §2

Results on one molecule are retold here after patent publication US20180228801A1, “Method for Enhancing Learning Ability and Memory of Patients with Alzheimer's Disease using Mocetinostat” (National Taiwan Normal University, priority 2017, published 2018).

On to `Nc1ccccc1NC(=O)c1ccc(CNc2nccc(-c3cccnc3)n2)cc1` [MGCD0103, N-(2-Aminophenyl)-4-[[(4-pyridin-3-ylpyrimidin-2-yl)amino]methyl] benzamide], for which the IC50 (usually the concentration that inhibits the measured activity by half) in assay [1] was about 7 µM. The “expression of pCDK” value with pCDK is “do not show difference”. Moreover, in assay [2], the “ChAT, numbers of cholinergic neurons” value is 52.75 ± 8.27. In assay [3], the “5HT, numbers of serotonergic neurons” value is recorded as 21.43 ± 1.32.
